Experimental data as given in ChEMBL document CHEMBL3272317, “Application of SCAP to drug design. 1. Prediction of octanol-water partition coefficients using solvent-dependent conformational analyses” (J Med Chem, 1976).

Assay: Octanol-water partition coefficient, log P of the compound

Question: Which logP does the source give for `CCCc1ccccc1` here?
Answer: 3.68

Question: Which logP does the source give for `CC(C)(C)CO` here?
Answer: 1.36

Question: For `Nc1ccccc1` [ANILINE], which logP is on record?
Answer: 0.9

Question: For `CCC(C)=O` [BUTANONE], which logP is on record?
Answer: 0.29

Question: For `CCCCCl` [BUTYL CHLORIDE], which logP is on record?
Answer: 2.39

Question: Which logP does the source give for `OC1CCCCC1` [CYCLOHEXANOL] here?
Answer: 1.23

Question: Which logP does the source give for `CCC#N` [PROPIONITRILE] here?
Answer: 0.16
